From patent US20030171347A1, “Sigma receptor antagonists having anti-cocaine properties and uses thereof” (priority 1998, published 2003)
Like-named read-outs stand apart in the source and are kept apart here.

Assays:
[1] = biological target: 5-HT2 receptors (Rattus norvegicus, UniProt P14842); test: 5-HT2 receptor competition binding ([3H]ketanserin)
[2] = tested on: rat red nucleus; test: Acute dystonic reaction after microinjection into the rat red nucleus; type: in vivo; conditions: alone and against sigma agonists such as DTG
[3] = tested on: Male, Swiss Webster mice; test: Effects of sigma ligands alone on baseline locomotor activity; type: in vivo; conditions: 30 min; i.p. mg/kg: BD1008 1, BD1067 5, BD1047 30, LR172 5, BD1018 30, BD1063 30, LR132 30, LR176 10, YZ011 0.1, YZ027 1, YZ029 5
[4] = biological target: 5-HT1 receptors; test: 5-HT1 receptor competition binding ([3H]5-HT); conditions: rat brain homogenates
[5] = biological target: T1, muscarinic cholinergic receptors (Rattus norvegicus, UniProt P08482); test: Muscarinic cholinergic receptor competition binding
T1 construct: from tissue; host or cells: rat brain homogenate / P2 membranes
T1 sequence (P08482 1-460): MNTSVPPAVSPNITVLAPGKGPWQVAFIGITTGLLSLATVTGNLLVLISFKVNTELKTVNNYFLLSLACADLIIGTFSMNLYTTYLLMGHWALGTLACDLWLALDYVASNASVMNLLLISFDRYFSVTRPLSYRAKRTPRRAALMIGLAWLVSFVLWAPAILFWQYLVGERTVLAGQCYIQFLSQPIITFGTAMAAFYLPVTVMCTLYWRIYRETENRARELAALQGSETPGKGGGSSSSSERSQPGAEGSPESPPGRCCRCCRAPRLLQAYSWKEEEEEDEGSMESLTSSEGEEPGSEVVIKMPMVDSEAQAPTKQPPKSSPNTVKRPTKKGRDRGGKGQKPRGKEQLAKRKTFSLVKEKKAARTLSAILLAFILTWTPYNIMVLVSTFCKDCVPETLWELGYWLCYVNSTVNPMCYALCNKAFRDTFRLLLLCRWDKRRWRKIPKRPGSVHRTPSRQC

[6] = biological target: PCP sites on NMDA receptors (Rattus norvegicus, UniProt P35439); test: PCP site competition binding ([3H]TCP)
[7] = biological target: T2, σ1 receptors (Cavia porcellus, UniProt Q60492); test: σ1 receptor competition binding; parameters: species or system guinea pig
T2 construct: Crude P2 membranes were prepared from guinea pig brain, rat brain, or rat liver; from tissue; host or cells: guinea pig brain (crude P2 membranes)
T2 sequence (Q60492 whole entry): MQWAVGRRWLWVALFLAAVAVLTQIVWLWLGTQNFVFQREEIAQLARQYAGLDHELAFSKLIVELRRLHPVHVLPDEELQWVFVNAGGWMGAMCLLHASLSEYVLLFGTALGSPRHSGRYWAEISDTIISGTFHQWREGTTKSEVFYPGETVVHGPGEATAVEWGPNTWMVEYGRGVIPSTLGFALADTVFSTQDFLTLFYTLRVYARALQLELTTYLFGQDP

[8] = tested on: Male, Swiss Webster mice; test: Attenuation of cocaine-induced locomotor activity; type: in vivo; conditions: same ligand doses as baseline test, 15 min before cocaine 10 mg/kg i.p.; 30 min; ANOVA
[9] = biological target: T3, Dopamine (D2) receptors (Rattus norvegicus, UniProt P61169); test: Dopamine D2 receptor competition binding ([3H](−)sulpiride)
T3 construct: from tissue; host or cells: rat brain homogenate / P2 membranes
T3 sequence (P61169 whole entry): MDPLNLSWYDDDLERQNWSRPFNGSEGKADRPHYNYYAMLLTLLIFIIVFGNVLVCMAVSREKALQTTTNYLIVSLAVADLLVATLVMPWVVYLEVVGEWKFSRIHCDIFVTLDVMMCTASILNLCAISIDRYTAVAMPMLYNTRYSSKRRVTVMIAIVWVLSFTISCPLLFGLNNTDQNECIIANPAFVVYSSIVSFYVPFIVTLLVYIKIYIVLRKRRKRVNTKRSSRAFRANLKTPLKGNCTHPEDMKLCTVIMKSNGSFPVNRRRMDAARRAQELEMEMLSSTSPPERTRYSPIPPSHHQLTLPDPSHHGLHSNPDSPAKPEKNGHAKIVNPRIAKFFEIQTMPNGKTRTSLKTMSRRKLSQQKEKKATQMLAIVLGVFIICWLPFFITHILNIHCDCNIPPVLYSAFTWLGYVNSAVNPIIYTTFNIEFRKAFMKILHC

[10] = biological target: α1-adrenoceptors; test: α1-adrenoceptor competition binding ([3H]prazosin); conditions: rat brain homogenates
[11] = biological target: β-adrenoceptors; test: β-adrenoceptor competition binding ([3H]dihydroalprenolol); conditions: rat brain homogenates
[12] = biological target: α2-adrenoceptors; test: α2-adrenoceptor competition binding ([3H]clonidine); conditions: rat brain homogenates
[13] = biological target: T4, σ2 sites (Rattus norvegicus, UniProt Q5U3Y7); test: σ2 receptor competition binding
T4 construct: Crude P2 membranes were prepared from guinea pig brain, rat brain, or rat liver; from tissue; host or cells: rat liver (crude P2 membranes)
T4 sequence (Q5U3Y7 1-176): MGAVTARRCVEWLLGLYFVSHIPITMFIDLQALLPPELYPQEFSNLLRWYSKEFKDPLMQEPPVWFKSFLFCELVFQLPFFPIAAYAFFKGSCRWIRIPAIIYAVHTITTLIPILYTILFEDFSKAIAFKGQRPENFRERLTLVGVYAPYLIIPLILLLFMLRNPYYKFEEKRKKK

[14] = tested on: σ1 receptors; test: Antisense oligodeoxynucleotide (i.c.v.) against locomotor stimulatory effects of cocaine; type: in vivo, mouse
[15] = tested on: σ1 receptors; test: Antisense oligodeoxynucleotide (i.c.v.) against cocaine-induced convulsions; type: in vivo, mouse
[16] = tested on: σ1 receptors; test: Antisense oligodeoxynucleotide (i.c.v.), basal locomotor activity; type: in vivo, mouse; conditions: i.c.v. antisense treatment, 30 min before the cocaine challenge
[17] = Table 1, [3H]DTG plus dextrallorphan, rat liver, mean±SEM, minimum of two independent assays
[18] = Table 4, second series, [3H]DTG plus dextrallorphan, rat liver
[19] = Table 1, [3H](+)-pentazocine, guinea pig brain, mean±SEM, minimum of two independent assays, read-out: σ1
[20] = Table 4, second series, [3H](+)-pentazocine, guinea pig brain, read-out: σ1
[21] = rat brain homogenates, [3H]ketanserin, read-out: 5-HT2
[22] = rat brain homogenates, [3H]TCP, read-out: NMDA (PCP)
[23] = rat brain homogenates, [3H](−)sulpiride, read-out: Dopamine (D2)
[24] = NYU sequences, 10 μg/5 μl i.c.v. on Days 1, 2 and 4, cocaine 60 mg/kg i.p. on Day 5

5-HT2 receptors, sequence (P14842 whole entry): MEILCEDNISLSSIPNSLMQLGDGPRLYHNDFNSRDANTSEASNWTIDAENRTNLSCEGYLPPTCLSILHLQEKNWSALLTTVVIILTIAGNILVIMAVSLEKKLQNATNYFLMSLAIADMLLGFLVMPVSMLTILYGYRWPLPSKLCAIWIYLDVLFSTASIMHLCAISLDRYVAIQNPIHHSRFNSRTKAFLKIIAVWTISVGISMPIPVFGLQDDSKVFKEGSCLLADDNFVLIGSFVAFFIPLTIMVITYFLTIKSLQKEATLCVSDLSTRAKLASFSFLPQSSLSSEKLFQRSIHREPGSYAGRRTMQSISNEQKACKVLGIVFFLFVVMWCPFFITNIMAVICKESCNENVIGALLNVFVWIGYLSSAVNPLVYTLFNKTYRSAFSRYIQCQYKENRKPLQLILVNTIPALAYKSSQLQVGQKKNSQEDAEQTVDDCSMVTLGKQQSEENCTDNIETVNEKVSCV

| Compound | Ki [13, 17] [nM] | Ki [13, 18] [nM] | Ki [7, 19] [nM] | IC50 [1, 21] [nM] | IC50 [6, 22] [nM] | IC50 [9, 23] [nM] | other results |
| --- | --- | --- | --- | --- | --- | --- | --- |
| CN(C)CCN(C)CCc1ccc(Cl)c(Cl)c1 [BD1047] | – | – | – | – | – | – | IC50 [1]: 4670 ± 2630 nM; agonist versus antagonist designation (dystonic head postures) [2]: functional antagonists; baseline horizontal locomotor activity versus saline [3]: no significant difference; IC50 [4]: > 10000 nM; IC50 [5]: 8000 ± 1000 nM; IC50 [6]: > 10000 nM; Ki [7]: 0.9 ± 0.14 nM; cocaine stimulated locomotor activity after pre-treatment [8]: significant reduction in cocaine stimulated locomotor activity; IC50 [9]: > 10000 nM; IC50 [10]: > 10000 nM; IC50 [11]: 145 ± 100 nM; IC50 [12]: > 10000 nM |
| Clc1ccc(CCN2CCN(CCCc3ccccc3)CC2)cc1Cl [YZ-069-2] | 39 ± 2 | 39 ± 2 | 2 ± 0.2 | – | – | – | Ki [7, 20]: 2 ± 0.2 nM |
| CC(C)=CCN1CCC2(C)c3cc(O)ccc3CC1C2C (single isomer, unassigned; (+)) [(+)-Pentazocine, reference compound] | – | – | – | – | – | – | agonist versus antagonist designation (dystonic head postures) [2]: agonists |
| COc1cccc(CC(=O)N(C)CCN2CCCC2)c1 [YZ-005] | 1110 ± 55 | – | 3101 ± 20 | > 10000 | > 10000 | > 10000 | – |
| Nc1ccccc1CCN1CCN(CCCc2ccccc2)CC1 [YZ-165-2-2] | 18 ± 0.2 | 18 ± 0.2 | 5 ± 0.1 | – | – | – | Ki [7, 20]: 5 ± 0.1 nM |
| 5′-GAGTGCCCAGCCACAACCAGG-3′ (all phosphorothioate, sugars by position and methylation of C not given here) [NYU antisense, 21-mer phosphorothioate antisense oligodeoxynucleotide against mouse σ1 receptors (King et al., 1997)] | – | – | – | – | – | – | effect on locomotor stimulatory effects of cocaine ([14]; NYU, 10 μg/5 μl i.c.v. on Days 1, 2 and 4, cocaine 10 mg/kg i.p. on Day 5): attenuates the locomotor stimulatory effects of cocaine; effect on cocaine-induced convulsions [15, 24]: protected against the convulsive effects of cocaine; basal locomotor activity [16]: no effects on basal locomotor activity |
| C[C@@H]1CN(CCCn2c3ccccc3c3ccccc32)C[C@H](C)N1 [Rimcazole, reference compound] | 1160 ± 160 | – | – | – | – | – | – |
| CN(CCc1cccc([N+](=O)[O-])c1)CCN1CCCC1 [YZ-027] | 95 ± 0.7 | – | 6 ± 2 | > 10000 | > 10000 | > 10000 | baseline horizontal locomotor activity versus saline [3]: no significant difference; cocaine stimulated locomotor activity after pre-treatment [8]: significant reduction in cocaine stimulated locomotor activity |
| COc1ccc(CCN2CCN(CCCc3ccccc3)CC2)cc1 [YZ-067-2] | 29 ± 2 | 29 ± 2 | 1 ± 0.3 | – | – | – | Ki [7, 20]: 1 ± 0.3 nM |
| 5′-CCCACGGCATCCCAGCGG-3′ (all phosphorothioate, sugars by position and methylation of C not given here) [McGill antisense, 18-mer phosphorothioate antisense oligodeoxynucleotide targeting the 5′-end of the σ1 receptor (Kitaichi et al., 1997)] | – | – | – | – | – | – | effect on locomotor stimulatory effects of cocaine ([14]; McGill, 10 nmol/5 μl i.c.v. every 12 hours, four times, cocaine 10 mg/kg i.p.): attenuates the locomotor stimulatory effects of cocaine; effect on cocaine-induced convulsions ([15]; McGill, 10 nmol/5 μl i.c.v. every 12 hours, four times, cocaine 60 mg/kg i.p. 12 hours after last): significant attenuation of cocaine-induced convulsions; basal locomotor activity [16]: no effects on basal locomotor activity |
| COc1ccccc1CC(=O)N(C)CCN1CCCC1 [YZ-008] | 3170 ± 144 | – | – | > 10000 | > 10000 | > 10000 | – |
| COc1cccc(CCN2CCN(C(=O)Cc3cccc(OC)c3)CC2)c1 [YZ-085-2] | 12 ± 2 | 12 ± 2 | – | – | – | – | – |
| COc1ccccc1CCN1CCN(CCCc2ccccc2)CC1 [YZ-184-2] | 8 ± 0.2 | 8 ± 0.2 | – | – | – | – | – |
| 5′-GAGGTCCCGACCACACACAGG-3′ (all phosphorothioate, sugars by position and methylation of C not given here) [mismatch] | – | – | – | – | – | – | effect on cocaine-induced convulsions [15, 24]: responses no different from the saline-treated animals |
| CN(CCc1cccc(N)c1)CCN1CCCC1 [YZ-033] | 2240 ± 260 | – | 579 ± 35 | > 10000 | > 10000 | > 10000 | – |
| COc1ccc(CC(=O)N(C)CCN2CCCC2)cc1 [YZ-007] | 1220 ± 95 | – | 2220 ± 61 | > 10000 | > 10000 | > 10000 | – |
| CN(CCc1ccc(N)cc1)CCN1CCCC1 [YZ-030] | 973 ± 77 | – | 276 ± 13 | > 10000 | > 10000 | > 10000 | – |
| CN1CCN(CCc2ccc(Cl)c(Cl)c2)CC1 [BD1063] | – | – | – | 2550 ± 2420 | > 10000 | > 10000 | agonist versus antagonist designation (dystonic head postures) [2]: functional antagonists; baseline horizontal locomotor activity versus saline [3]: no significant difference; IC50 [4]: > 10000 nM; IC50 ([5]; rat brain homogenates, [3H]pirenzepine, read-out: mACh): 9460 ± 750 nM; Ki [7]: 9 ± 1 nM; cocaine stimulated locomotor activity after pre-treatment [8]: significant reduction in cocaine stimulated locomotor activity; IC50 [10]: > 10000 nM; IC50 [11]: > 10000 nM; IC50 [12]: > 10000 nM |
| COc1ccccc1CC(=O)N1CCN(CCCc2ccccc2)CC1 [YZ-048-2] | 294 ± 10 | 294 ± 10 | 56 ± 8 | – | – | – | Ki [7, 20]: 56 ± 8 nM |
| NCCN1CCN(CCCc2ccccc2)CC1 [YZ-136-2] | 188 ± 13 | 188 ± 13 | 3 ± 0.09 | – | – | – | Ki [7, 20]: 3 ± 0.09 nM |
| O=C(Cc1ccc([N+](=O)[O-])cc1)N1CCN(CCCc2ccccc2)CC1 [YZ-155-2] | 167 ± 4 | 167 ± 4 | 14 ± 1 | – | – | – | Ki [7, 20]: 14 ± 1 nM |
| CCCN(CCc1ccc(Cl)c(Cl)c1)CCN1CCCCC1 [BD1069] | 545 ± 139 | – | – | > 10000 | > 10000 | > 10000 | agonist versus antagonist designation (dystonic head postures) [2]: variable, partial agonist actions; Ki ([7]; read-out: σ1): 1 ± 0.2 nM |
| CN(CCc1ccccc1[N+](=O)[O-])CCN1CCCC1 [YZ-028] | 311 ± 4 | – | 8 ± 0.9 | > 10000 | > 10000 | > 10000 | – |
| CN(CCc1ccc([N+](=O)[O-])cc1)CCN1CCCC1 [YZ-029] | 63 ± 0.1 | – | 4 ± 0.9 | > 10000 | > 10000 | > 10000 | baseline horizontal locomotor activity versus saline [3]: no significant difference; cocaine stimulated locomotor activity after pre-treatment [8]: significant reduction in cocaine stimulated locomotor activity |
| COc1ccc(CC(=O)N2CCN(CCCc3ccccc3)CC2)cc1 [YZ-051-2] | 464 ± 34 | 464 ± 34 | 13 ± 2 | – | – | – | Ki [7, 20]: 13 ± 2 nM |
| OC(CCCN1CCN(c2ncc(F)cn2)CC1)c1ccc(F)cc1 (centres unmarked) [BMY14802, reference compound] | 51 ± 8 | – | – | – | – | – | – |
| CN(CCc1ccccc1N)CCN1CCCC1 [YZ-032] | 640 ± 25 | – | 291 ± 38 | > 10000 | > 10000 | > 10000 | – |
| Fc1ccc(C(OCCN2CCN(CCCc3ccccc3)CC2)c2ccc(F)cc2)cc1 [GBR 12909, reference compound] | – | – | – | – | – | – | Ki ([13]; Table 5, dopamine transporter ligands): 133 ± 37 nM; Ki ([7]; Table 5, dopamine transporter ligands, read-out: σ1): 132 ± 31 nM |
